Molecular target: T1, NMDA receptor GRIN1/GRIN2B (NR2B) expressed in HEK293 cells (Homo sapiens, UniProt Q13224)
T1 construct: host or cells: HEK293
Experiment: Reversal of Ro 25-6981-mediated suppression of the Ca2+ response (fluo-8 fluorescence, FDSS) in HEK293 cells expressing GRIN1 and GRIN2B
Format: cell-based
Conditions: % reversal=100*(R−Rneg)/(Rpos−Rneg) of Ro 25-6981 suppression of co-agonist (glutamate/glycine) Ca2+ response, 10 min pre-incubation, compound concentration not given
Experimental: HEK293 cells with constructs conferring stable expression of the GRIN1 gene and tetracycline-inducible expression of the GRIN2B gene (Chantest, Cleveland, Ohio) are grown to ˜75% confluence in tissue culture flasks at 37° C., 5% CO2. NR2B expression is induced by overnight incubation with 0.3-0.4 μg/ml tetracycline in the presence of 2.5 mM ARL-15896 at 37° C., followed by moving to 30° C. for 3-5 hours. Cells are next harvested using TripleExpress™ (Life Technologies, Carlsbad, Calif.) according to the manufacturer's instructions, first removing culture medium, rinsing with Dulbecco's phosphate buffered saline (Ca^2+ and Mg^2+-free), and then adding the TripleExpress™ reagent. Harvested cells are spun down, washed twice in Ca^2+- and Mg^2+-free Hank's Balanced Salt Solution with 20 mM HEPES and 10 mM glucose, pH 7.4 (HHnoCa solution), and counted with viability assessed using Trypan Blue. Cells are loaded with fluo-8 Ca^2+-sensitive dye in HHnoCa solution according to the manufacturer's directions (AAT Bioquest, Sunnyvale, Calif.), incubating at 37° C. for 20 minutes followed by 25 minutes at 22-25° C. After a wash in HHnoCa to remove extracellular dye, cells are resuspended in HHnoCa and plated at […] cells per well in a volume of 25 μl/well in 384 well black-wall, clear bottom plates (Hamamatsu, Middlesex, N.J.). Plates are then centrifuged to create a monolayer in the wells and stored in the dark until used.
Prior to analysis, compound plates are prepared with each compound at 6× the final desired concentration. From stock solutions at 10 mM in 100% DMSO, compounds are spotted in the desired amounts using an ECHO liquid handler (Labcyte, Sunnyvale, Calif.) into wells of a 384-well plate and then diluted with 50 μl of HHnoCa containing 750 nM Ro 25-6981 and 120 μM 5,7-dichlorokynurenic acid (both purchased from Tocris Bioscience (Bristol, England) and maintained as 10 mM stock solutions in 100% DMSO). To insure complete compound dissolution, these plates are then placed in an orbital shaker for at least one hour. Also prepared prior to the assay is a co-agonist plate containing HHnoCa with 240 μM glutamate, 2.4 mM glycine, and 7.2 mM CaCl2, which is 2.4× the desired final concentration of each reagent. Both the compound plate and co-agonist plate are 384-well polypropylene plates from Thermo Fisher Scientific, Waltham, Mass.
The assay is performed by first adding 10 μl solution from each well of the compound plate described above to the cell plate using a CyBiWell liquid handler (Analytik Jena AG, Jena, Germany), followed by 10 minutes pre-incubation in the dark. Cell plates are then loaded onto a Hamamatsu FDSS 6000 plate reader. After a 30-second baseline, 25 μl is added to each well from the co-agonist plate, and the fluorescence signal is recorded for another 2 minutes. FDSS software applies shading and autofluorescence correction, and resultant raw fluorescence measurements are exported in the form of a fluorescence ratio for each well to its own reading at time zero in the experiment. In each plate, negative control wells consist of wells where Ro 25-6981 and 5,7 dichlorokynurenic acid are present and co-agonist is applied in the absence of any added assay compound. Under these conditions, the Ca^2+ response to co-agonist is suppressed. Positive control wells also present in each plate contain 5,7 dichlorokynurenic acid but no Ro 25-6981, so that co-agonist addition results in a large Ca^2+ response. Compounds tested are evaluated on the basis of their ability to reverse the suppression of the Ca^2+ response mediated by Ro 25-6981, which is quantified as % reversal=100*(R−Rneg)/(Rpos−Rneg) where R is the fluorescence ratio for the test compound at the end of the experiment and Rneg and Rpos are the end ratios for the negative and positive controls, respectively. […]

T1 sequence (Q13224 27-1484, other chains not shown): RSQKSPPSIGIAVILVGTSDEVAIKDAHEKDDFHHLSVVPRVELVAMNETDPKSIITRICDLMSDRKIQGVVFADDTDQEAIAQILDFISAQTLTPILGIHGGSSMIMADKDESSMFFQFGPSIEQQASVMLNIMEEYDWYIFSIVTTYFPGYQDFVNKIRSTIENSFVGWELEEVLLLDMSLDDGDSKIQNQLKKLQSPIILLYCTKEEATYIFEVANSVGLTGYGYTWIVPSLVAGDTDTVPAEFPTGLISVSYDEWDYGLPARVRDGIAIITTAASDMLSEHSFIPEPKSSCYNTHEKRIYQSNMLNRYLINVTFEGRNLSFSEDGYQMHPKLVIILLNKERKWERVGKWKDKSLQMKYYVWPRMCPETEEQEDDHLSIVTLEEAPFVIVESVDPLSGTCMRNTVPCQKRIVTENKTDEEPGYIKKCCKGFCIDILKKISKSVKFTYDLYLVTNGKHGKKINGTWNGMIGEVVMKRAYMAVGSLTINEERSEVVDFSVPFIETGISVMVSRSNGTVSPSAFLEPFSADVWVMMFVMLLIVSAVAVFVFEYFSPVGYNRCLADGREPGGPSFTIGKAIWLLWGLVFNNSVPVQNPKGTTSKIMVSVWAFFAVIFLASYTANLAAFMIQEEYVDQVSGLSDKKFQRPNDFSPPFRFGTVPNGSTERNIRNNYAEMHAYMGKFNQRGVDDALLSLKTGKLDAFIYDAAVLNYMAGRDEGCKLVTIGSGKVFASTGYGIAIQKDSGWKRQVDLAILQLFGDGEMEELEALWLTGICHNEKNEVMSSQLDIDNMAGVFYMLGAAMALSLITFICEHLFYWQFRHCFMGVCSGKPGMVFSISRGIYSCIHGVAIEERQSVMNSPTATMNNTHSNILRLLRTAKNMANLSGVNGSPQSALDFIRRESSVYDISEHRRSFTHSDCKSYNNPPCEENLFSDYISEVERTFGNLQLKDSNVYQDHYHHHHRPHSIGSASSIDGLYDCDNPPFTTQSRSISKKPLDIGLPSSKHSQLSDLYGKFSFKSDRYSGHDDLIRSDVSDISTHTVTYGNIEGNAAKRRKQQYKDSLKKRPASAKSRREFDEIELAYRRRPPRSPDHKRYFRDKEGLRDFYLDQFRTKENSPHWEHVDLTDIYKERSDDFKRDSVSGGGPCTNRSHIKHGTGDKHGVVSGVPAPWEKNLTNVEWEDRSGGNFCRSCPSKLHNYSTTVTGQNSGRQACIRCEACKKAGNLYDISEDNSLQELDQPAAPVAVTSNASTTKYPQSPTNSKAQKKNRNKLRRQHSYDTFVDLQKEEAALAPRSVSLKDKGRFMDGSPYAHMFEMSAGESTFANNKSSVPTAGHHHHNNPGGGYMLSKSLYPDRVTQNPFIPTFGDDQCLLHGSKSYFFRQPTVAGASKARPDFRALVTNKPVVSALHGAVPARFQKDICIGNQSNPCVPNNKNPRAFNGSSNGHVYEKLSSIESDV

Row | Response Recovered (%) | SMILES
1 | −2 | O=C(CCn1cnc2scc(-c3ccc(Cl)c(C(F)(F)F)c3)c2c1=O)N1CCCC1C(F)(F)F (stereo not shown) [Example 103, 5-[4-chloro-3-(trifluoromethyl)phenyl]-3-{3-oxo-3-[2-(trifluoromethyl)pyrrolidin-1-yl]propyl}-3H,4H-thieno[2,3-d]pyrimidin-4-one]
2 | 2 | O=C(CCn1cnc2scc(-c3ccc(Cl)c(C(F)(F)F)c3)c2c1=O)N1CCC(F)C1 (stereo not shown) [Example 102, 5-[4-chloro-3-(trifluoromethyl)phenyl]-3-[3-(3-fluoropyrrolidin-1-yl)-3-oxopropyl]-3H,4H-thieno[2,3-d]pyrimidin-4-one]
3 | 21 | O=C(Nn1cnc2scc(-c3ccc(Cl)c(C(F)(F)F)c3)c2c1=O)C1CCCC1 [Example 95, N-(5-(4-chloro-3-(trifluoromethyl)phenyl)-4-oxothieno[2,3-d]pyrimidin-3(4H)-yl)cyclopentanecarboxamide]
4 | 2 | O=C(CNn1cnc2scc(-c3ccc(Cl)c(C(F)(F)F)c3)c2c1=O)N1CCCC1 [Example 91, 5-(4-chloro-3-(trifluoromethyl)phenyl)-3-((2-oxo-2-(pyrrolidin-1-yl)ethyl)amino)thieno[2,3-d]pyrimidin-4(3H)-one]
5 | 29 | O=C(Nn1cnc2scc(-c3ccc(Cl)c(C(F)(F)F)c3)c2c1=O)N1CCCC1 [Example 89, N-(5-(4-chloro-3-(trifluoromethyl)phenyl)-4-oxothieno[2,3-d]pyrimidin-3(4H)-yl)pyrrolidine-1-carboxamide]

The next lines start with the compound.

Row | SMILES | Response Recovered (%)
6 | CN1CCN(C(=O)Cn2cnc3scc(-c4ccc(Cl)cc4)c3c2=O)CC1 [Example 3, 5-(4-chlorophenyl)-3-[2-(4-methylpiperazin-1-yl)-2-oxoethyl]-3H,4H-thieno└2,3-d┘pyrimidin-4-one] | 3
7 | O=C(Cn1cnc2scc(-c3ccc(Cl)c(Cl)c3)c2c1=O)N1CC[C@@H](F)C1 [Example 68, 5-(3,4-dichlorophenyl)-3-{2-[(3R)-3-fluoropyrrolidin-1-yl]-2-oxoethyl}-3H,4H-thieno[2,3-d]pyrimidin-4-one] | 71
8 | Cc1ccc(-c2csc3ncn(CC(=O)N4CCCC4C(F)(F)F)c(=O)c23)cc1 (stereo not shown) [Example 28, 5-(4-methylphenyl)-3-{2-oxo-2-[2-(trifluoromethyl)pyrrolidin-1-yl]ethyl}-3H,4H-thieno[2,3-d]pyrimidin-4-one] | 6
9 | O=C(Cn1cnc2scc(-c3ccc(F)cc3)c2c1=O)N1CCCC1C(F)(F)F (stereo not shown) [Example 27] | 7
10 | O=C(Cn1cnc2scc(-c3cncc(F)c3)c2c1=O)N1CCCC1 [Example 39, 5-(5-fluoropyridin-3-yl)-3-[2-oxo-2-(pyrrolidin-1-yl)ethyl]-3H,4H-thieno└2,3-d┘pyrimidin-4-one] | 3
11 | O=C(Cn1cnc2scc(-c3ccc(Cl)c(Cl)c3)c2c1=O)N1CCC(F)C1 (stereo not shown) [Example 60, 5-(3,4-dichlorophenyl)-3-[2-(3-fluoropyrrolidin-1-yl)-2-oxoethyl]-3H,4H-thieno[2,3-d]pyrimidin-4-one] | 98
12 | O=C(Cn1cnc2scc(-c3cnc(Cl)c(Cl)c3)c2c1=O)N1CC(F)C(F)C1 (stereo not shown) [Example 72, 5-(5,6-dichloropyridin-3-yl)-3-[2-(3,4-difluoropyrrolidin-1-yl)-2-oxoethyl]-3H,4H-thieno[2,3-d]pyrimidin-4-one] | 15
13 | O=C(Cn1cnc2scc(-c3ccc(C(F)(F)F)cc3)c2c1=O)N1CCCCC1 [Example 26, 3-[2-oxo-2-(piperidin-1-yl)ethyl]-5-[4-(trifluoromethyl)phenyl]-3H,4H-thieno[2,3-d]pyrimidin-4-one] | 1
